Laboratory results from patent US20030165854A1, “Marker genes responding to treatment with toxins” (priority 2000, published 2003).

Tests used:
[1] = tested on: rat liver cDNAs SEQ ID NOs: 1-61; format: in vivo, Han/Wistar rat; conditions: Strain HW, Sex F
[2] = tested on: rat liver cDNAs SEQ ID NOs: 1-61; format: in vivo, Han/Wistar rat; conditions: Strain HW

Compound: CC(=O)Nc1cccc2c1-c1ccccc1C2 [4-AAF, 4-acetylaminofluorene]
- Maximum Abundance, SEQ ID NO 12, Clone ID 700062506 [1]: 3
- Maximum Abundance, SEQ ID NO 13, Clone ID 700135749 [1]: 4
- Maximum Abundance, SEQ ID NO 15, Clone ID 700024728 [2]: 3
- Maximum Abundance, SEQ ID NO 16, Clone ID 700024834 [2]: 3
- Maximum Abundance, SEQ ID NO 19, Clone ID 700062240 [2]: 5
- Maximum Abundance, SEQ ID NO 21, Clone ID 700064131 [2]: 3
- Maximum Abundance, SEQ ID NO 22, Clone ID 700065081 [2]: 3
- Maximum Abundance, SEQ ID NO 25, Clone ID 700127949 [2]: 3
- Maximum Abundance, SEQ ID NO 26, Clone ID 700132557 [2]: 7
- Maximum Abundance, SEQ ID NO 27, Clone ID 700135733 [2]: 4
- Maximum Abundance, SEQ ID NO 28, Clone ID 700135850 [2]: 3
- Maximum Abundance, SEQ ID NO 30, Clone ID 700140375 [2]: 3
- Maximum Abundance, SEQ ID NO 31, Clone ID 700140450 [2]: 8
- Maximum Abundance, SEQ ID NO 34, Clone ID 700177158 [2]: 3
- Maximum Abundance, SEQ ID NO 37, Clone ID 700182016 [2]: 3
- Maximum Abundance, SEQ ID NO 38, Clone ID 700185871 [2]: 3
- Maximum Abundance, SEQ ID NO 41, Clone ID 700248367 [2]: 3
- Maximum Abundance, SEQ ID NO 43, Clone ID 700253694 [2]: 3
- Maximum Abundance, SEQ ID NO 44, Clone ID 700303850 [2]: 3
- Maximum Abundance, SEQ ID NO 45, Clone ID 700305380 [2]: 4
- Maximum Abundance, SEQ ID NO 48, Clone ID 700363174 [2]: 3
- Maximum Abundance, SEQ ID NO 50, Clone ID 700480077 [2]: 3
- Maximum Abundance, SEQ ID NO 51, Clone ID 700483222 [2]: 3
- Maximum Abundance, SEQ ID NO 53, Clone ID 700818852 [2]: 5
- Maximum Abundance, SEQ ID NO 54, Clone ID 700937735 [2]: 8
- Maximum Abundance, SEQ ID NO 57, Clone ID 701341861 [2]: 3
- Maximum Abundance, SEQ ID NO 58, Clone ID 701574951 [2]: 3
- Maximum Abundance, SEQ ID NO 61, Clone ID 701637512 [2]: 4
- Maximum Abundance, SEQ ID NO 14, Clone ID 700330824 ([2]; Sex F): 3
